Laboratory results as given in patent EP1978972B1, “USE OF ALKYLGLUCOSIDE ESTERS AS BETA-DEFENSIN INDUCERS” (Pierre Fabre Dermo-Cosmétique, priority 2006, dated 2007).

Tested on: LL-37
Assay: Induction of LL-37 gene expression in skin explant, systemic treatment, quantitative RT-PCR
Assay type: cell-based, human
Conditions: 30 µg/ml
Excerpt: Il est connu de WO 97/45101 que les esters d'α-alkylglucoside peuvent être utilisés comme agent anti-microbien et/ou anti-fongique pour agir en tant que conservateur dans une composition, pour la préserver d'un développement microbien. […]

laurate de butylglucoside [αβ-LBG brut]
FI, LL-37 (2 h): 6
FI, LL-37 (up to 24 h, in words): reste stable jusqu'à 24 h
